Measured values published in patent publication US20260256792A1, “TREATMENT OF CHRONIC SPONTANEOUS URTICARIA BY ADMINISTERING (R)-2-[3-[4-AMINO-3-(2-FLUORO-4-PHENOXY-PHENYL)PYRAZOLO[3,4-D]PYRIMIDIN-1-YL]PIPERIDINE-1-CARBONYL]-4-METHYL-4-[4-(OXETAN-3-YL)PIPERAZIN-1-YL]PENT-2-ENENITRILE” (priority 2023, published 2026).

Tested on: moderate-to-severe chronic spontaneous urticaria (CSU)
Assay: Phase 2 CSU study: urticaria activity score over 7 days (UAS7)
Type: in vivo, human
Design: key to UAS7 Median / UAS7 Change from baseline Median / UAS7 change from baseline, Q1 / UAS7 change from baseline, Q3 / UAS7 change from baseline, Max / UAS7 Change from baseline LS Mean (SE): UAS7 points; daily UAS score ranges 0–6 points/day, over 7 days
Conditions: for UAS7 Change from baseline LS Mean (SE) / UAS7 Post-baseline Mean (SD) / UAS7 % Change difference for rilzabrutinib vs. placebo LS Mean (95% CI) / UAS7 % Change from baseline LS Mean (SE) / UAS7 Change difference for rilzabrutinib vs. placebo LS Mean (95% CI): ITT population, 400 mg TID; for Imputed non-responder n (%), UAS7 = 0 / Imputed non-responder n (%), UAS7 ≤6 / Non-responder n (%), UAS7 = 0 / Non-responder n (%), UAS7 ≤6 / OR for rilzabrutinib vs. placebo, UAS7 = 0 / OR for rilzabrutinib vs. placebo, UAS7 ≤6 / RRD (%) for rilzabrutinib vs. placebo, UAS7 = 0 / RRD (%) for rilzabrutinib vs. placebo, UAS7 ≤6 / Responder n (%), UAS7 = 0 / Responder n (%), UAS7 ≤6: ITT, 400 mg BID
Excerpt: The study comprises a 12 week, randomized, double-blind, placebo-controlled, multi-center, dose-ranging efficacy and safety phase, followed by a 40 week open label extension (OLE) phase (see FIG. 1). The study consists of three phases and an optional OLE phase. […] Clinically, CSU is characterized by the spontaneous and recurrent appearance of pruritic hives. The proposed primary endpoints were the UAS7 at Week 12 in EU and EU reference countries and the ISS7 in the US. Regardless of where a participant was from, all assessments were the same. The UAS7 score is a composite score containing both the HSS7 and the ISS7. This allowed a global assessment of the two key components of urticaria: hives and itch. […] The UAS is a validated PRO measure. […] The daily UAS scores range from 0 to 6 point/day. […] Patients were to complete the UAS using the e-diary. […] The following secondary endpoints were to be analyzed using the same approach as for the primary endpoint: • Change from baseline in UAS7 at Week 4 • Change from baseline in UAS7 at Week 12 (for US and US reference countries) • Change from baseline in ISS7 at Week 12 (except US and US reference countries) • Change from baseline in HSS7 at Week 12 The following responder secondary endpoints were to be analyzed using the Cochran-Mantel-Haenszel test adjusted by region: • Proportion of participants with UAS7<6 at Week 12 • Proportion of participants with UAS7=0 at Week 12 Participants who received selected prohibited medications and/or rescue medications were to be considered as non-responders for time points after the medication usage. For other participants, all available data including those collected during the off-treatment period were to be used to determine the responder/non-responder status. Missing data were to be considered as non-responders.

## CC(C)(C=C(C#N)C(=O)N1CCC[C@@H](n2nc(-c3ccc(Oc4ccccc4)cc3F)c3c(N)ncnc32)C1)N1CCN(C2COC2)CC1 [rilzabrutinib, (R)-2-[3-[4-amino-3-(2-fluoro-4-phenoxy-phenyl)pyrazolo[3,4-d]pyrimidin-1-yl]piperidine-1-carbonyl]-4-methyl-4-[4-(oxetan-3-yl)piperazin-1-yl]pent-2-enenitrile]
Week 5
  UAS7 Change from baseline LS Mean (SE): −16.68
  UAS7 Post-baseline Mean (SD): 12.72 (10.63)
  Imputed non-responder n (%), UAS7 = 0: 5 (12.2) n (%)
  Imputed non-responder n (%), UAS7 ≤6: 5 (12.2) n (%)
  Non-responder n (%), UAS7 = 0: 35 (85.4) n (%)
  Non-responder n (%), UAS7 ≤6: 28 (68.3) n (%)
  OR for rilzabrutinib vs. placebo, UAS7 = 0: 6.024
  OR for rilzabrutinib vs. placebo, UAS7 ≤6: 8.203
  RRD (%) for rilzabrutinib vs. placebo, UAS7 ≤6: 24.3 %
  Responder n (%), UAS7 = 0: 6 (14.6) n (%)
  Responder n (%), UAS7 ≤6: 13 (31.7) n (%)
Week 6
  UAS7 % Change difference for rilzabrutinib vs. placebo LS Mean (95% CI): −27.22%
  UAS7 % Change from baseline LS Mean (SE): −54.12%
  UAS7 Change difference for rilzabrutinib vs. placebo LS Mean (95% CI): −7.54
  UAS7 Change from baseline LS Mean (SE): −16.68
  UAS7 Post-baseline Mean (SD): 12.95 (11.42)
  Imputed non-responder n (%), UAS7 = 0: 4 (9.8) n (%)
  Imputed non-responder n (%), UAS7 ≤6: 4 (9.8) n (%)
  Non-responder n (%), UAS7 = 0: 36 (87.8) n (%)
  Non-responder n (%), UAS7 ≤6: 29 (70.7) n (%)
  OR for rilzabrutinib vs. placebo, UAS7 = 0: 4.821
  OR for rilzabrutinib vs. placebo, UAS7 ≤6: 2.329
  RRD (%) for rilzabrutinib vs. placebo, UAS7 = 0: 8.4 %
  RRD (%) for rilzabrutinib vs. placebo, UAS7 ≤6: 13.6 %
  Responder n (%), UAS7 = 0: 5 (12.2) n (%)
  Responder n (%), UAS7 ≤6: 12 (29.3) n (%)
Week 7
  UAS7 % Change difference for rilzabrutinib vs. placebo LS Mean (95% CI): −25.60%
  UAS7 % Change from baseline LS Mean (SE): −52.94%
  UAS7 Change difference for rilzabrutinib vs. placebo LS Mean (95% CI): −7.30
  UAS7 Change from baseline LS Mean (SE): −16.36
  UAS7 Post-baseline Mean (SD): 13.31 (9.35)
  Imputed non-responder n (%), UAS7 = 0: 4 (9.8) n (%)
  Imputed non-responder n (%), UAS7 ≤6: 4 (9.8) n (%)
  Non-responder n (%), UAS7 = 0: 35 (85.4) n (%)
  Non-responder n (%), UAS7 ≤6: 29 (70.7) n (%)
  OR for rilzabrutinib vs. placebo, UAS7 = 0: 6.024
  OR for rilzabrutinib vs. placebo, UAS7 ≤6: 3.425
  RRD (%) for rilzabrutinib vs. placebo, UAS7 ≤6: 17.8 %
  Responder n (%), UAS7 = 0: 6 (14.6) n (%)
  Responder n (%), UAS7 ≤6: 12 (29.3) n (%)
Week 8
  UAS7 % Change difference for rilzabrutinib vs. placebo LS Mean (95% CI): −22.78%
  UAS7 % Change from baseline LS Mean (SE): −54.62%
  UAS7 Change difference for rilzabrutinib vs. placebo LS Mean (95% CI): −6.17
  UAS7 Change from baseline LS Mean (SE): −16.52
  UAS7 Post-baseline Mean (SD): 12.33 (10.15)
  Imputed non-responder n (%), UAS7 = 0: 5 (12.2) n (%)
  Imputed non-responder n (%), UAS7 ≤6: 5 (12.2) n (%)
  Non-responder n (%), UAS7 = 0: 33 (80.5) n (%)
  Non-responder n (%), UAS7 ≤6: 25 (61.0) n (%)
  OR for rilzabrutinib vs. placebo, UAS7 = 0: 4.083
  OR for rilzabrutinib vs. placebo, UAS7 ≤6: 3.297
  RRD (%) for rilzabrutinib vs. placebo, UAS7 = 0: 13.4 %
  RRD (%) for rilzabrutinib vs. placebo, UAS7 ≤6: 21.8 %
  Responder n (%), UAS7 = 0: 8 (19.5) n (%)
  Responder n (%), UAS7 ≤6: 16 (39.0) n (%)
Week 9
  UAS7 % Change difference for rilzabrutinib vs. placebo LS Mean (95% CI): −26.48%
  UAS7 % Change from baseline LS Mean (SE): −54.53%
  UAS7 Change difference for rilzabrutinib vs. placebo LS Mean (95% CI): −7.09
  UAS7 Change from baseline LS Mean (SE): −16.69
  UAS7 Post-baseline Mean (SD): 11.76 (9.95)
  Imputed non-responder n (%), UAS7 = 0: 9 (22.0) n (%)
  Imputed non-responder n (%), UAS7 ≤6: 9 (22.0) n (%)
  Non-responder n (%), UAS7 = 0: 33 (80.5) n (%)
  Non-responder n (%), UAS7 ≤6: 28 (68.3) n (%)
  OR for rilzabrutinib vs. placebo, UAS7 = 0: 2.914
  OR for rilzabrutinib vs. placebo, UAS7 ≤6: 3.540
  RRD (%) for rilzabrutinib vs. placebo, UAS7 = 0: 11.3 %
  RRD (%) for rilzabrutinib vs. placebo, UAS7 ≤6: 19.4 %
  Responder n (%), UAS7 = 0: 8 (19.5) n (%)
  Responder n (%), UAS7 ≤6: 13 (31.7) n (%)
Week 10
  UAS7 % Change difference for rilzabrutinib vs. placebo LS Mean (95% CI): −23.22%
  UAS7 % Change from baseline LS Mean (SE): −56.75%
  UAS7 Change difference for rilzabrutinib vs. placebo LS Mean (95% CI): −6.30
  UAS7 Change from baseline LS Mean (SE): −17.20
  UAS7 Post-baseline Mean (SD): 11.82 (10.15)
  Imputed non-responder n (%), UAS7 = 0: 10 (24.4) n (%)
  Imputed non-responder n (%), UAS7 ≤6: 10 (24.4) n (%)
  Non-responder n (%), UAS7 = 0: 32 (78.0) n (%)
  Non-responder n (%), UAS7 ≤6: 29 (70.7) n (%)
  OR for rilzabrutinib vs. placebo, UAS7 = 0: 2.322
  OR for rilzabrutinib vs. placebo, UAS7 ≤6: 1.699
  RRD (%) for rilzabrutinib vs. placebo, UAS7 = 0: 10.9 %
  RRD (%) for rilzabrutinib vs. placebo, UAS7 ≤6: 8.6 %
  Responder n (%), UAS7 = 0: 9 (22.0) n (%)
  Responder n (%), UAS7 ≤6: 12 (29.3) n (%)
Week 11
  UAS7 % Change difference for rilzabrutinib vs. placebo LS Mean (95% CI): −25.03%
  UAS7 % Change from baseline LS Mean (SE): −55.80%
  UAS7 Change difference for rilzabrutinib vs. placebo LS Mean (95% CI): −6.74
  UAS7 Change from baseline LS Mean (SE): −17.15
  UAS7 Post-baseline Mean (SD): 12.17 (10.81)
  Imputed non-responder n (%), UAS7 = 0: 9 (22.0) n (%)
  Imputed non-responder n (%), UAS7 ≤6: 9 (22.0) n (%)
  Non-responder n (%), UAS7 = 0: 35 (85.4) n (%)
Week 1
  Imputed non-responder n (%), UAS7 = 0: 1 (2.4) n (%)
  Imputed non-responder n (%), UAS7 ≤6: 1 (2.4) n (%)
  Non-responder n (%), UAS7 = 0: 38 (92.7) n (%)
  Non-responder n (%), UAS7 ≤6: 34 (82.9) n (%)
  OR for rilzabrutinib vs. placebo, UAS7 = 0: 3.132
  OR for rilzabrutinib vs. placebo, UAS7 ≤6: 3.469
  RRD (%) for rilzabrutinib vs. placebo, UAS7 = 0: 4.7 %
  RRD (%) for rilzabrutinib vs. placebo, UAS7 ≤6: 10.3 %
  Responder n (%), UAS7 = 0: 3 (7.3) n (%)
  Responder n (%), UAS7 ≤6: 7 (17.1) n (%)
Week 2
  Imputed non-responder n (%), UAS7 = 0: 2 (4.9) n (%)
  Imputed non-responder n (%), UAS7 ≤6: 2 (4.9) n (%)
  Non-responder n (%), UAS7 = 0: 38 (92.7) n (%)
  Non-responder n (%), UAS7 ≤6: 35 (85.4) n (%)
  OR for rilzabrutinib vs. placebo, UAS7 = 0: 2.893
  OR for rilzabrutinib vs. placebo, UAS7 ≤6: 2.834
  RRD (%) for rilzabrutinib vs. placebo, UAS7 = 0: 4.2 %
  RRD (%) for rilzabrutinib vs. placebo, UAS7 ≤6: 7.7 %
  Responder n (%), UAS7 = 0: 3 (7.3) n (%)
  Responder n (%), UAS7 ≤6: 6 (14.6) n (%)
Week 3
  Imputed non-responder n (%), UAS7 = 0: 1 (2.4) n (%)
  Imputed non-responder n (%), UAS7 ≤6: 1 (2.4) n (%)
  Non-responder n (%), UAS7 = 0: 37 (90.2) n (%)
  Non-responder n (%), UAS7 ≤6: 31 (75.6) n (%)
  OR for rilzabrutinib vs. placebo, UAS7 = 0: 3.857
  OR for rilzabrutinib vs. placebo, UAS7 ≤6: 2.554
  RRD (%) for rilzabrutinib vs. placebo, UAS7 = 0: 6.3 %
  Responder n (%), UAS7 = 0: 4 (9.8) n (%)
  Responder n (%), UAS7 ≤6: 10 (24.4) n (%)
Week 4
  Imputed non-responder n (%), UAS7 = 0: 4 (9.8) n (%)
  Imputed non-responder n (%), UAS7 ≤6: 4 (9.8) n (%)
  Non-responder n (%), UAS7 = 0: 38 (92.7) n (%)
  Non-responder n (%), UAS7 ≤6: 28 (68.3) n (%)
  OR for rilzabrutinib vs. placebo, UAS7 = 0: 1.278
  OR for rilzabrutinib vs. placebo, UAS7 ≤6: 2.948
  RRD (%) for rilzabrutinib vs. placebo, UAS7 = 0: 1.3 %
  RRD (%) for rilzabrutinib vs. placebo, UAS7 ≤6: 16.7 %
  Responder n (%), UAS7 = 0: 3 (7.3) n (%)
  Responder n (%), UAS7 ≤6: 13 (31.7) n (%)
